# Results reported in PubChem BioAssay (NCI).
#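 Test compounds were applied to cells in 96-well plates for 48 hours at 5 doses. Abbreviation: GI50, concentration required for 50% inhibition of growth. The concentration for full growth arrest is given as TGI.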
# Tests used:
# Experiment in all cases: inhibition of tumour cell growth, NCI panel, 48 h
# SR leukemia = tested on: SR leukemia
# A549 NSCLC = tested on: A549 NSCLC
# TK-10 renal = tested on: TK-10 renal
# K-562 leukemia = tested on: K-562 leukemia
# HCT-116 colon = tested on: HCT-116 colon
# UACC-257 melanoma = tested on: UACC-257 melanoma
# HOP-62 NSCLC = tested on: HOP-62 NSCLC
# HL-60(TB) leukemia = tested on: HL-60(TB) leukemia
# MCF7 breast = tested on: MCF7 breast
# HS 578T breast = tested on: HS 578T breast
# SK-MEL-2 melanoma = tested on: SK-MEL-2 melanoma
# OVCAR-5 ovarian = tested on: OVCAR-5 ovarian
# BT-549 breast = tested on: BT-549 breast
# SK-MEL-5 melanoma = tested on: SK-MEL-5 melanoma
# U251 CNS = tested on: U251 CNS
# ACHN renal = tested on: ACHN renal
# M14 melanoma = tested on: M14 melanoma
# SF-539 CNS = tested on: SF-539 CNS
# SF-268 CNS = tested on: SF-268 CNS
# PC-3 prostate = tested on: PC-3 prostate
# MDA-MB-231 breast = tested on: MDA-MB-231 breast
# DU-145 prostate = tested on: DU-145 prostate
# CAKI-1 renal = tested on: CAKI-1 renal
# OVCAR-4 ovarian = tested on: OVCAR-4 ovarian
# NCI-H23 lung = tested on: NCI-H23 lung
# MDA-MB-435 = tested on: MDA-MB-435
# UO-31 renal = tested on: UO-31 renal
# SN12C renal = tested on: SN12C renal
# RXF 393 renal = tested on: RXF 393 renal
# MOLT-4 leukemia = tested on: MOLT-4 leukemia
# MDA-MB-468 breast = tested on: MDA-MB-468 breast
# IGROV1 ovarian = tested on: IGROV1 ovarian
# EKVX NSCLC = tested on: EKVX NSCLC
# CCRF-CEM leukemia = tested on: CCRF-CEM leukemia
# HT29 colon = tested on: HT29 colon
# OVCAR-3 ovarian = tested on: OVCAR-3 ovarian
# UACC-62 melanoma = tested on: UACC-62 melanoma
# SNB-19 CNS = tested on: SNB-19 CNS
# NCI-H522 lung = tested on: NCI-H522 lung
# SF-295 CNS = tested on: SF-295 CNS
# 786-0 renal = tested on: 786-0 renal
# MALME-3M melanoma = tested on: MALME-3M melanoma
# RPMI-8226 leukemia = tested on: RPMI-8226 leukemia
# SK-OV-3 ovarian = tested on: SK-OV-3 ovarian
# HCC-2998 colon = tested on: HCC-2998 colon
# SW-620 colon = tested on: SW-620 colon
# SK-MEL-28 melanoma = tested on: SK-MEL-28 melanoma
# OVCAR-8 ovarian = tested on: OVCAR-8 ovarian
# KM12 colon = tested on: KM12 colon
# HCT-15 colon = tested on: HCT-15 colon
# NCI-H460 lung = tested on: NCI-H460 lung
# SNB-75 CNS = tested on: SNB-75 CNS
# T-47D breast = tested on: T-47D breast
# LOX IMVI melanoma = tested on: LOX IMVI melanoma
# HOP-92 NSCLC = tested on: HOP-92 NSCLC
# NCI-H226 lung = tested on: NCI-H226 lung
# COLO 205 colon = tested on: COLO 205 colon
# A498 renal = tested on: A498 renal
smiles,measurement,setting,value
CN(C)c1nc(NCCNS(=O)(=O)c2ccc(C(=O)/C=C/c3ccccc3)cc2)nc(N2CCOCC2)n1,GI50,SR leukemia,3.2 µM
same,TGI,SR leukemia,> 100 µM
same,GI50,A549 NSCLC,13.6 µM
same,TGI,A549 NSCLC,28.3 µM
same,GI50,TK-10 renal,16.4 µM
same,TGI,TK-10 renal,30.2 µM
same,GI50,K-562 leukemia,2.19 µM
same,TGI,K-562 leukemia,> 100 µM
same,GI50,HCT-116 colon,1.82 µM
same,TGI,HCT-116 colon,3.59 µM
same,GI50,UACC-257 melanoma,17.9 µM
same,TGI,UACC-257 melanoma,32.3 µM
same,GI50,HOP-62 NSCLC,16.4 µM
same,TGI,HOP-62 NSCLC,32.1 µM
same,GI50,HL-60(TB) leukemia,6.18 µM
same,TGI,HL-60(TB) leukemia,42.1 µM
same,GI50,MCF7 breast,3.49 µM
same,TGI,MCF7 breast,13.8 µM
same,GI50,HS 578T breast,17.1 µM
same,TGI,HS 578T breast,64.4 µM
same,GI50,SK-MEL-2 melanoma,15.3 µM
same,TGI,SK-MEL-2 melanoma,29.5 µM
same,GI50,OVCAR-5 ovarian,12.1 µM
same,TGI,OVCAR-5 ovarian,26 µM
same,GI50,BT-549 breast,11.2 µM
same,TGI,BT-549 breast,23.7 µM
same,GI50,SK-MEL-5 melanoma,15.9 µM
same,TGI,SK-MEL-5 melanoma,29.4 µM
same,GI50,U251 CNS,11.7 µM
same,TGI,U251 CNS,25.9 µM
same,GI50,ACHN renal,18.2 µM
same,TGI,ACHN renal,36.3 µM
same,GI50,M14 melanoma,14.6 µM
same,TGI,M14 melanoma,31.6 µM
same,GI50,SF-539 CNS,11.1 µM
same,TGI,SF-539 CNS,24.3 µM
same,GI50,SF-268 CNS,13.7 µM
same,TGI,SF-268 CNS,31 µM
same,GI50,PC-3 prostate,8.63 µM
same,TGI,PC-3 prostate,23.6 µM
same,GI50,MDA-MB-231 breast,13.9 µM
same,TGI,MDA-MB-231 breast,27.6 µM
same,GI50,DU-145 prostate,15.1 µM
same,TGI,DU-145 prostate,28.4 µM
same,GI50,CAKI-1 renal,12.2 µM
same,TGI,CAKI-1 renal,24.6 µM
same,GI50,OVCAR-4 ovarian,14.3 µM
same,TGI,OVCAR-4 ovarian,27.8 µM
same,GI50,NCI-H23 lung,16 µM
same,TGI,NCI-H23 lung,30.4 µM
same,GI50,MDA-MB-435,14.7 µM
same,TGI,MDA-MB-435,28.3 µM
same,GI50,UO-31 renal,11.2 µM
same,TGI,UO-31 renal,25 µM
same,GI50,SN12C renal,14.6 µM
same,TGI,SN12C renal,28.6 µM
same,GI50,RXF 393 renal,7.87 µM
same,TGI,RXF 393 renal,22.8 µM
same,GI50,MOLT-4 leukemia,4.27 µM
same,TGI,MOLT-4 leukemia,> 100 µM
same,GI50,MDA-MB-468 breast,4.17 µM
same,TGI,MDA-MB-468 breast,17.7 µM
same,GI50,IGROV1 ovarian,15.3 µM
same,TGI,IGROV1 ovarian,31.9 µM
same,GI50,EKVX NSCLC,14.7 µM
same,TGI,EKVX NSCLC,30.6 µM
same,GI50,CCRF-CEM leukemia,4.41 µM
same,TGI,CCRF-CEM leukemia,75.9 µM
same,GI50,HT29 colon,3.8 µM
same,TGI,HT29 colon,13.1 µM
same,GI50,OVCAR-3 ovarian,15.3 µM
same,TGI,OVCAR-3 ovarian,28.6 µM
same,GI50,UACC-62 melanoma,12 µM
same,TGI,UACC-62 melanoma,25 µM
same,GI50,SNB-19 CNS,14.8 µM
same,TGI,SNB-19 CNS,29.1 µM
same,GI50,NCI-H522 lung,13.6 µM
same,TGI,NCI-H522 lung,27.1 µM
same,GI50,SF-295 CNS,15.6 µM
same,TGI,SF-295 CNS,30.4 µM
same,GI50,786-0 renal,14.8 µM
same,TGI,786-0 renal,29.1 µM
same,GI50,MALME-3M melanoma,15.2 µM
same,TGI,MALME-3M melanoma,29.3 µM
same,GI50,RPMI-8226 leukemia,3.25 µM
same,TGI,RPMI-8226 leukemia,11.4 µM
same,GI50,SK-OV-3 ovarian,15.6 µM
same,TGI,SK-OV-3 ovarian,29.8 µM
same,GI50,HCC-2998 colon,16.7 µM
same,TGI,HCC-2998 colon,31.1 µM
same,GI50,SW-620 colon,3.41 µM
same,TGI,SW-620 colon,12.7 µM
same,GI50,SK-MEL-28 melanoma,17.2 µM
same,TGI,SK-MEL-28 melanoma,33.1 µM
same,GI50,OVCAR-8 ovarian,16.4 µM
same,TGI,OVCAR-8 ovarian,31.8 µM
same,GI50,KM12 colon,2 µM
same,TGI,KM12 colon,4.23 µM
same,GI50,HCT-15 colon,5.21 µM
same,TGI,HCT-15 colon,20.5 µM
same,GI50,NCI-H460 lung,18.2 µM
same,TGI,NCI-H460 lung,38.3 µM
same,GI50,SNB-75 CNS,5.49 µM
same,TGI,SNB-75 CNS,19.8 µM
same,GI50,T-47D breast,16 µM
same,TGI,T-47D breast,37.4 µM
same,GI50,LOX IMVI melanoma,1.97 µM
same,TGI,LOX IMVI melanoma,4.13 µM
same,GI50,HOP-92 NSCLC,12.2 µM
same,TGI,HOP-92 NSCLC,26.6 µM
same,GI50,NCI-H226 lung,13.5 µM
same,TGI,NCI-H226 lung,31.7 µM
same,GI50,COLO 205 colon,20.2 µM
same,TGI,COLO 205 colon,40.3 µM
same,GI50,A498 renal,14.6 µM
same,TGI,A498 renal,27.8 µM
